From patent publication US20170143701A1, “CARBOHYDRATE METABOLISM-AMELIORATING AGENT” (SUNTORY HOLDINGS LIMITED, priority 2014, published 2017)

Assays:
[1] = system: C57/BL6J mice; test: In vivo plasma GLP-1 level-increasing action: plasma active GLP-1 level (ELISA) after oral administration; details: 10 mg/kg oral; for Significant difference (p < 0.05) vs control group, plasma active GLP-1 level: 30 minutes, Student's t-test; for Plasma active GLP-1 level (relative value to control group as 100), average value: blood 30 minutes after, 0.5% CMC-Na group = 100
How it was run: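 Male C57BL/6J mice, habituated 1 week, deprived of food 5.5 h and water 2 h, then dosed orally with compound at 10 mg/kg in 0.5% CMC-Na. Vena cava blood taken 30 min later under anaesthesia, with heparin and sitagliptin added; plasma active GLP-1 by ELISA, relative to vehicle group set at 100.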

[2] = system: NCI-H716 cells; test: In vitro GLP-1 secretion-accelerating action: amount of active GLP-1 secreted (ELISA); type: cell-based; details: 1 hour; for Significant difference (p < 0.05) vs control group, amount of active GLP-1 secreted: 10 mM, Student's t-test; for Amount of active GLP-1 secreted (relative value to control group as 100), average value: cyclic dipeptide 10 mM with 10 μM Sitagliptin phosphate, group with no cyclic dipeptide = 100
Protocol: Among the cyclic dipeptides, 92 highly water-soluble cyclic dipeptides were used in the following experiment. In each well of a Poly-L-Lysine 96-well plate, NCI-H716 cells suspended in 100 μL of a DMEM (with 10% FBS, 2 mM glutamine, and 1% antibiotics added in advance) were seeded at 0.5×10^5 cells/well, and cultured in a CO2 incubator (manufactured by ESPEC CORP.) for 48 hours. After washing with PBS(+), 100 μL of a PBS(+) solution with each cyclic dipeptide at a final concentration of 10 mM and 10 μM of Sitagliptin phosphate added therein was added to the cells. After 1 hour, the resultant solution was recovered, and the amount of active GLP-1 in the solution was measured by using the ELISA kit. In the analysis, the amount of active GLP-1 for a group with no cyclic dipeptide added was defined as 100, and relative values thereto were used.

CC(C)C[C@@H]1NC(=O)[C@H](CCCN=C(N)N)NC1=O [compound 43, cyclo-arginyl-leucine]
Significant difference (p < 0.05) vs control group, plasma active GLP-1 level ([1]; Table 6, Experiment 1): Yes
Plasma active GLP-1 level (relative value to control group as 100), average value ([1]; Table 6, Experiment 1): 138
Significant difference (p < 0.05) vs control group, amount of active GLP-1 secreted ([2]; Table 1, Experiment 1): Yes
Amount of active GLP-1 secreted (relative value to control group as 100), average value ([2]; Table 1, Experiment 1): 226

NC(=O)CCC1NC(=O)C(CC(N)=O)NC1=O (centres unmarked) [compound 174, Cyclo(Gln-Asn)]
Significant difference (p < 0.05) vs control group, plasma active GLP-1 level ([1]; Table 15, Experiment 10): No
Plasma active GLP-1 level (relative value to control group as 100), average value ([1]; Table 15, Experiment 10): 168
Significant difference (p < 0.05) vs control group, amount of active GLP-1 secreted ([2]; Table 4, Experiment 4): Yes
Amount of active GLP-1 secreted (relative value to control group as 100), average value ([2]; Table 4, Experiment 4): 305

NC(N)=NCCC[C@@H]1NC(=O)[C@@H]2CCCN2C1=O [compound 209, cyclo-arginyl-proline]
Significant difference (p < 0.05) vs control group, plasma active GLP-1 level ([1]; Table 7, Experiment 2): Yes
Plasma active GLP-1 level (relative value to control group as 100), average value ([1]; Table 7, Experiment 2): 315
Significant difference (p < 0.05) vs control group, amount of active GLP-1 secreted ([2]; Table 4, Experiment 4): Yes
Amount of active GLP-1 secreted (relative value to control group as 100), average value ([2]; Table 4, Experiment 4): 441

NC(=O)CC[C@@H]1NC(=O)[C@H](Cc2cnc[nH]2)NC1=O [compound 191, cyclo-glutaminyl-histidine]
Significant difference (p < 0.05) vs control group, plasma active GLP-1 level ([1]; Table 7, Experiment 2): Yes
Plasma active GLP-1 level (relative value to control group as 100), average value ([1]; Table 7, Experiment 2): 247
Significant difference (p < 0.05) vs control group, amount of active GLP-1 secreted ([2]; Table 4, Experiment 4): Yes
Amount of active GLP-1 secreted (relative value to control group as 100), average value ([2]; Table 4, Experiment 4): 743

C[C@@H](O)[C@@H]1NC(=O)[C@@H]2CCCN2C1=O [compound 31, Cyclo(Pro-Thr)]
Significant difference (p < 0.05) vs control group, plasma active GLP-1 level ([1]; Table 6, Experiment 1): No
Plasma active GLP-1 level (relative value to control group as 100), average value ([1]; Table 6, Experiment 1): 129
Significant difference (p < 0.05) vs control group, amount of active GLP-1 secreted ([2]; Table 1, Experiment 1): Yes
Amount of active GLP-1 secreted (relative value to control group as 100), average value ([2]; Table 1, Experiment 1): 204

NC(=O)CC1NC(=O)C(CC(N)=O)NC1=O (centres unmarked) [compound 173, Cyclo(Asn-Asn)]
Significant difference (p < 0.05) vs control group, plasma active GLP-1 level ([1]; Table 15, Experiment 10): No
Plasma active GLP-1 level (relative value to control group as 100), average value ([1]; Table 15, Experiment 10): 123
Significant difference (p < 0.05) vs control group, amount of active GLP-1 secreted ([2]; Table 4, Experiment 4): Yes
Amount of active GLP-1 secreted (relative value to control group as 100), average value ([2]; Table 4, Experiment 4): 255

O=C1N[C@@H](Cc2cnc[nH]2)C(=O)N2CCC[C@@H]12 [compound 37, cyclo-histidyl-proline]
Significant difference (p < 0.05) vs control group, plasma active GLP-1 level ([1]; Table 6, Experiment 1): Yes
Plasma active GLP-1 level (relative value to control group as 100), average value ([1]; Table 6, Experiment 1): 62
Significant difference (p < 0.05) vs control group, amount of active GLP-1 secreted ([2]; Table 1, Experiment 1): No
Amount of active GLP-1 secreted (relative value to control group as 100), average value ([2]; Table 1, Experiment 1): 231

NCCCCC1NC(=O)C(Cc2ccccc2)NC1=O (centres unmarked) [compound 63, cyclo-lysyl-phenylalanine]
Significant difference (p < 0.05) vs control group, plasma active GLP-1 level ([1]; Table 6, Experiment 1): Yes
Plasma active GLP-1 level (relative value to control group as 100), average value ([1]; Table 6, Experiment 1): 206
Significant difference (p < 0.05) vs control group, amount of active GLP-1 secreted ([2]; Table 2, Experiment 2): Yes
Amount of active GLP-1 secreted (relative value to control group as 100), average value ([2]; Table 2, Experiment 2): 220

O=C(O)CCC1NC(=O)C(CO)NC1=O (centres unmarked) [compound 192, cyclo-seryl-glutamic acid]
Significant difference (p < 0.05) vs control group, amount of active GLP-1 secreted ([2]; Table 4, Experiment 4): Yes

NC(=O)CCC1NC(=O)C(Cc2ccccc2)NC1=O (centres unmarked) [compound 65, cyclo-glutaminyl-phenylalanine]
Significant difference (p < 0.05) vs control group, amount of active GLP-1 secreted ([2]; Table 2, Experiment 2): Yes
Amount of active GLP-1 secreted (relative value to control group as 100), average value ([2]; Table 2, Experiment 2): 227

CC(O)C1NC(=O)C(Cc2cnc[nH]2)NC1=O (centres unmarked) [compound 109, cyclo-threonyl-histidine]
Significant difference (p < 0.05) vs control group, amount of active GLP-1 secreted ([2]; Table 3, Experiment 3): Yes
Amount of active GLP-1 secreted (relative value to control group as 100), average value ([2]; Table 3, Experiment 3): 290

CSCCC1NC(=O)C(CC(N)=O)NC1=O (centres unmarked) [compound 175, cyclo-asparaginyl-methionine]
Significant difference (p < 0.05) vs control group, amount of active GLP-1 secreted ([2]; Table 4, Experiment 4): Yes
Amount of active GLP-1 secreted (relative value to control group as 100), average value ([2]; Table 4, Experiment 4): 218

NC(=O)C[C@@H]1NC(=O)[C@H](CC(=O)O)NC1=O [compound 170, Cyclo(Asn-Asp)]
Significant difference (p < 0.05) vs control group, amount of active GLP-1 secreted ([2]; Table 3, Experiment 3): No
Amount of active GLP-1 secreted (relative value to control group as 100), average value ([2]; Table 3, Experiment 3): 125
